These are literature values, as cited in US11571429B2, “Method and compounds for treating peripheral neuropathy” (UPEXMED CO. LTD., priority 2017, dated 2023).

The structures appear in SMILES notation.

For the series, the system named is diabetic neuropathy pain. The conditions noted are these: taken orally.

Turning to `CN(C)CCC=C1c2ccccc2CCc2ccccc21` [Amitriptyline, amitriptyline], the “NNT; number of patients needed to treat for at least 50% pain relief” value is reported as 1.3.
